Reference: ChEMBL document CHEMBL5365451, “Discovery of CVN417, a Novel Brain-Penetrant α6-Containing Nicotinic Receptor Antagonist for the Modulation of Motor Dysfunction” (J Med Chem, 2023)
The source made the active and inactive calls. The calls are words filed in the database; no cut-off is given here.

What was measured:
[1] = Volume of distribution at steady state in Sprague-Dawley rat at 0.5 mg/kg, iv by LC-MS/MS analysis; assay type: ADME, organism-based; details: in vivo, read-out: Vdss
[2] = molecular target: Neuronal acetylcholine receptor; alpha3/beta4 (Homo sapiens, UniProt P30926+P32297); test: Antagonist activity at human alpha3/beta4 nAChR expressed in HEK293 cells assessed as nicotine-induced intracellular calcium release incubated for 15 mins by FLIPR analysis; assay type: cell-based
Chain of Neuronal acetylcholine receptor; alpha3/beta4 (P30926 whole entry): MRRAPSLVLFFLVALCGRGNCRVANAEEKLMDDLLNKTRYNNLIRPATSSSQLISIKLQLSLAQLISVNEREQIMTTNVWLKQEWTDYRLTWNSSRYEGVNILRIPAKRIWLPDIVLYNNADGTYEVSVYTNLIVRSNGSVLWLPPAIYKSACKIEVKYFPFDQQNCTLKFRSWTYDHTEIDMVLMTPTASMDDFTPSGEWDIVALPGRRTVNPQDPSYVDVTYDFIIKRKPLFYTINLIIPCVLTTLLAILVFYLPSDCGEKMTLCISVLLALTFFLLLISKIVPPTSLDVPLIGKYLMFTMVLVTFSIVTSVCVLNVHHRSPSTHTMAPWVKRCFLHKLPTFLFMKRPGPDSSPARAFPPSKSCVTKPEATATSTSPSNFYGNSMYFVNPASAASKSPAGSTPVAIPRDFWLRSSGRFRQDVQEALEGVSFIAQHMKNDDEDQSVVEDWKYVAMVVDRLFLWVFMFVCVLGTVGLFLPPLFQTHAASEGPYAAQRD
Chain of Neuronal acetylcholine receptor; alpha3/beta4 (P32297 whole entry): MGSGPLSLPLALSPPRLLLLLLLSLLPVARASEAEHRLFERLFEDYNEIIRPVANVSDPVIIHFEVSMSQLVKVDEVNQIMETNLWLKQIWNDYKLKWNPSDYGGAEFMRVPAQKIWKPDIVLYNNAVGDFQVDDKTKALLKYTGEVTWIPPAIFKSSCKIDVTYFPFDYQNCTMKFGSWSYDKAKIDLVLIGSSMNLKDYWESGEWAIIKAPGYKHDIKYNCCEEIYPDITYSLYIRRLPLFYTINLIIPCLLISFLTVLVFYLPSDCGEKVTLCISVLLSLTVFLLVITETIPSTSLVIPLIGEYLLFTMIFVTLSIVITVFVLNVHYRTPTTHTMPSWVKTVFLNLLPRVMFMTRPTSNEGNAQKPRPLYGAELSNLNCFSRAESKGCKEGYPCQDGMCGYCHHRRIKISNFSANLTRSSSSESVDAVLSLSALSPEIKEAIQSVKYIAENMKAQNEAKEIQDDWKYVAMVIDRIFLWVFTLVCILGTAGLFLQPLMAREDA

[3] = molecular target: Neuronal acetylcholine receptor; alpha4/beta2 (Homo sapiens, UniProt P17787+P43681); test: Antagonist activity at human alpha4/beta2 nAChR expressed in HEK293 cells assessed as nicotine-induced intracellular calcium release incubated for 15 mins by FLIPR analysis; assay type: cell-based
Chain of Neuronal acetylcholine receptor; alpha4/beta2 (P17787 whole entry): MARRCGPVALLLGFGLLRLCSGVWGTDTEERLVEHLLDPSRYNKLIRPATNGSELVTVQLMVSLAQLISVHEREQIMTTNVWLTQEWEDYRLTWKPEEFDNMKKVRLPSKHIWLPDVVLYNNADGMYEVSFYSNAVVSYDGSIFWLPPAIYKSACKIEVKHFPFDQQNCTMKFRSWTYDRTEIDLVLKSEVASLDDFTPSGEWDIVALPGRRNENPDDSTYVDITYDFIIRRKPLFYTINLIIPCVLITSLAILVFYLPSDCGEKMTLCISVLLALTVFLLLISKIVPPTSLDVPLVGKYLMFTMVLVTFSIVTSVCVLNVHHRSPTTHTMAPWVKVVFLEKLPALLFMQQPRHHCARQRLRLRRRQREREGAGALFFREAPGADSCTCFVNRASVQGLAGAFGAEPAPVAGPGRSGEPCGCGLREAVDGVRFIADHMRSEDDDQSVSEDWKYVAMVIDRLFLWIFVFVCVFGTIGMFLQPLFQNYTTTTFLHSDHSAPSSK
Chain of Neuronal acetylcholine receptor; alpha4/beta2 (P43681 whole entry): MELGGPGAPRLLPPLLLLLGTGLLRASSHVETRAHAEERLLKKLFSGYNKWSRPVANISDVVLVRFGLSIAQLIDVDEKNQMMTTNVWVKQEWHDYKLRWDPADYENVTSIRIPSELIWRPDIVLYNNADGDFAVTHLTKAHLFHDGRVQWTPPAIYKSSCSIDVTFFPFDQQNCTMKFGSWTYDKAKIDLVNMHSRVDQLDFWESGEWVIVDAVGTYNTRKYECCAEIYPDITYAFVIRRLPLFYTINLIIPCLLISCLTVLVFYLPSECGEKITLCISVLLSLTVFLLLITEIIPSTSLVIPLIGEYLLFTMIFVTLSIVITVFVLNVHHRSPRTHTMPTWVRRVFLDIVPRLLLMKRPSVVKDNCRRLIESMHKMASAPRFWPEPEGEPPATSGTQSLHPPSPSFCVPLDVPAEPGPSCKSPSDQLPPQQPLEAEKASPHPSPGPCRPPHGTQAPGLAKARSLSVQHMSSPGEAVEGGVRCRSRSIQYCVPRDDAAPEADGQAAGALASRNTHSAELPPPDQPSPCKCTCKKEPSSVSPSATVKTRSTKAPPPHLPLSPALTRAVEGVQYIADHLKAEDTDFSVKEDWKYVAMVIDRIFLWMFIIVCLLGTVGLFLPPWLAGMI

[4] = Intrinsic clearance in Sprague-Dawley rat at 0.5 mg/kg, iv by LC-MS/MS analysis; assay type: ADME, organism-based; details: in vivo
[5] = Antagonist activity at human alpha6-alpha3/beta2/beta3 V273S mutant nAChR expressed in HEK293 cells assessed as nicotine-induced intracellular calcium release incubated for 15 mins by FLIPR analysis; assay type: cell-based; details: HEK293, 0.25 h
[6] = Drug exposure in Sprague-Dawley rat brain at 3 mg/kg, po measured for 2 hrs by LC-MS/MS analysis; assay type: ADME, organism-based; details: read-out: Drug uptake
[7] = Oral bioavailability in Sprague-Dawley rat 3 mg/kg by LC-MS/MS analysis; assay type: ADME, organism-based; details: in vivo
[8] = Metabolic stability in human liver microsome assessed as clearance preincubated for 60 mins followed by NADPH addition and measured after 60 mins by LC-MS/MS analysis; assay type: ADME; details: liver microsomes, time 120 min, read-out: CLH
[9] = Metabolic stability in rat liver microsome assessed as clearance preincubated for 60 mins followed by NADPH addition and measured after 60 mins by LC-MS/MS analysis; assay type: ADME; details: liver microsomes, time 120 min, read-out: CLH
[10] = Plasma protein binding in mouse assessed as unbound fraction by rapid equilibrium dialysis; assay type: ADME, cell-free
[11] = Ratio of drug concentration in Sprague-Dawley rat brain to plasma assessed as unbound fraction at 10 mg/kg, po measured after 6 hrs by LC-MS/MS analysis; assay type: ADME, organism-based; details: read-out: K(p,uu,brain)
[12] = AUC (0 to infinity) in Sprague-Dawley rat at 10 mg/kg, po by LC-MS/MS analysis; assay type: ADME, organism-based; set-up: dose 10 mg/kg, route po; details: in vivo
[13] = Cmax in Sprague-Dawley rat at 10 mg/kg, po by LC-MS/MS analysis; assay type: ADME, organism-based; set-up: dose 10 mg/kg, route po; details: in vivo
[14] = Metabolic stability in dog liver microsome assessed as intrinsic clearance preincubated for 60 mins followed by NADPH addition and measured after 60 mins by LC-MS/MS analysis; assay type: ADME, Canis lupus familiaris; details: liver microsomes, time 120 min, read-out: CLH
[15] = AUC (0 to infinity) in Sprague-Dawley rat at 0.5 mg/kg, iv by LC-MS/MS analysis; assay type: ADME, organism-based; set-up: dose 0.5 mg/kg, route iv; details: in vivo
[16] = Volume of distribution at steady state in Sprague-Dawley rat at 1 mg/kg, iv by LC-MS/MS analysis; assay type: ADME, organism-based; details: in vivo, read-out: Vdss
[17] = Half life in Sprague-Dawley rat at 10 mg/kg, po by LC-MS/MS analysis; assay type: ADME, organism-based; details: in vivo
Rattus norvegicus [18] = organism: Rattus norvegicus; test: Antagonist activity at rat I2 receptor relative to control; set-up: scale not given: the % may be the effect or the level left; details: filed as antagonist
Mus musculus [19] = organism: Mus musculus; test: Anti-parkinson activity in C57BL6/J mouse model assessed as reduction in Ip induced DA release in striatum in presence of DHbetaE by fast-scan cyclic voltammetry analysis; assay type: functional, organism-based
Mus musculus [20] = organism: Mus musculus; test: Anti-parkinson activity in C57BL6/J mouse model assessed as reduction in Ip induced DA release in striatum by fast-scan cyclic voltammetry analysis; assay type: functional, organism-based
Brain = test: Drug concentration in po dosed Sprague-Dawley rat brain measured after 2 hrs by LC-MS/MS analysis; assay type: functional, organism-based; details: dose 3-25 mg/kg
[21] = Oral bioavailability in Sprague-Dawley rat at 10 mg/kg by LC-MS/MS analysis; assay type: ADME, organism-based; details: in vivo
[22] = AUC (0 to infinity) in Sprague-Dawley rat at 1 mg/kg, iv by LC-MS/MS analysis; assay type: ADME, organism-based; set-up: dose 1 mg/kg, route iv; details: in vivo
[23] = Metabolic stability in human hepatocytes assessed as intrinsic clearance measured per 10^6 cells; assay type: ADME, cell-based, Hepatocyte
[24] = Plasma protein binding in rat assessed as unbound fraction by rapid equilibrium dialysis; assay type: ADME, cell-free
[25] = Half life in Sprague-Dawley rat at 3 mg/kg, po by LC-MS/MS analysis; assay type: ADME, organism-based; details: in vivo
D(4) dopamine receptor = molecular target: T1, D(4) dopamine receptor (Homo sapiens, UniProt P21917); test: Antagonist activity at human D4 receptor; assay type: functional
T1 sequence (P21917 whole entry): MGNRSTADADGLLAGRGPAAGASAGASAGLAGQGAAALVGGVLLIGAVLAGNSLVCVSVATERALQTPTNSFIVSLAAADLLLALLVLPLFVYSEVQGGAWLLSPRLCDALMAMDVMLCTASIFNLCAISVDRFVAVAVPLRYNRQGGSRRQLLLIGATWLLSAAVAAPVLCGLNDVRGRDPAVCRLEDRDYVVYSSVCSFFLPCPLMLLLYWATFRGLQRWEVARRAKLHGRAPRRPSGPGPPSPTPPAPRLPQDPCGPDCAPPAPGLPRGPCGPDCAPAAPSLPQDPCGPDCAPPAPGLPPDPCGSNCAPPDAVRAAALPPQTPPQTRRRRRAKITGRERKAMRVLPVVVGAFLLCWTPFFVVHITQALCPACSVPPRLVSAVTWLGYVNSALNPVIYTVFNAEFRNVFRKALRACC

[26] = molecular target: Neuronal acetylcholine receptor subunit alpha-7 (Homo sapiens) (UniProt P36544); test: Antagonist activity at human alpha7 nAChR at 10 uM relative to control; set-up: scale not given: the % may be the effect or the level left
Chain of Neuronal acetylcholine receptor subunit alpha-7 (Homo sapiens) (P36544 whole entry): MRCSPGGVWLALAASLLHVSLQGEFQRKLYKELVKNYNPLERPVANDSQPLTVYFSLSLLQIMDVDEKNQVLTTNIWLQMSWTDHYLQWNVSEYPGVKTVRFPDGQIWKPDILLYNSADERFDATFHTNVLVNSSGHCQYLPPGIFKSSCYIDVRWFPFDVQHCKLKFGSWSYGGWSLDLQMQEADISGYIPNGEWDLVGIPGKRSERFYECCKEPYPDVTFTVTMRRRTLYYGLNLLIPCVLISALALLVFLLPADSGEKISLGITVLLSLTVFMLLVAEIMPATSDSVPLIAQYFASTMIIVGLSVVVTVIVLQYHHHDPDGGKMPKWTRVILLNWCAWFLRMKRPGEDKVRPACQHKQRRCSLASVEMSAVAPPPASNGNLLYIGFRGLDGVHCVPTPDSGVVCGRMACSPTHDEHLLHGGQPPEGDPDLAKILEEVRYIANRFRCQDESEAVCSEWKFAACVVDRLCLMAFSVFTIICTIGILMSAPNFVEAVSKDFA

[27] = Plasma protein binding in human assessed as unbound fraction by rapid equilibrium dialysis; assay type: ADME, cell-free
Mus musculus [28] = organism: Mus musculus; test: Anti-parkinson activity in C57BL6/J mouse model assessed as reduction in 5p 50 Hz induced DA release in striatum by fast-scan cyclic voltammetry analysis; assay type: functional, organism-based
[29] = Protein binding in rat brain assessed as unbound fraction by rapid equilibrium dialysis; assay type: ADME, tissue-based
[30] = Metabolic stability in human liver microsome assessed as intrinsic clearance preincubated for 60 mins followed by NADPH addition and measured after 60 mins by LC-MS/MS analysis; assay type: ADME; details: liver microsomes, time 120 min, read-out: CLH
[31] = Metabolic stability in rat liver microsome assessed as intrinsic clearance preincubated for 60 mins followed by NADPH addition and measured after 60 mins by LC-MS/MS analysis; assay type: ADME; details: liver microsomes, time 120 min, read-out: CLH
Rattus norvegicus [32] = test: Protection against tacrine-induced Sprague-Dawley rat tremulous jaw model assessed as decrease in tremor jaw movement at 3 to 25 mg/kg, po pretreated with compound for 90 mins followed by tacrine addition and measured after 5 mins; assay type: functional, organism-based; details: dose 3-25 mg/kg, time 95.0 min
[33] = Metabolic stability in dog hepatocytes assessed as intrinsic clearance measured per 10^6 cells; assay type: ADME, cell-based, Canis lupus familiaris, Hepatocyte
[34] = Metabolic stability in mouse liver microsome assessed as intrinsic clearance preincubated for 60 mins followed by NADPH addition and measured after 60 mins by LC-MS/MS analysis; assay type: ADME; details: liver microsomes, time 120 min, read-out: CLH
Rattus norvegicus [35] = test: Protection against tacrine-induced Sprague-Dawley rat tremulous jaw model assessed as decrease in tremor jaw movement at 25 mg/kg, po pretreated with compound for 90 mins followed by tacrine addition and measured after 5 mins; assay type: functional; set-up: scale not given: the % may be the effect or the level left; details: time 95 min, 1.583 h
[36] = Oral bioavailability in Sprague-Dawley rat at 3 mg/kg by LC-MS/MS analysis; assay type: ADME, organism-based; details: in vivo
[37] = molecular target: Sigma non-opioid intracellular receptor 1 (Cavia porcellus) (UniProt Q60492); test: Agonist activity at guinea pig sigma 1 relative to control; details: filed as agonist
Chain of Sigma non-opioid intracellular receptor 1 (Cavia porcellus) (Q60492 whole entry): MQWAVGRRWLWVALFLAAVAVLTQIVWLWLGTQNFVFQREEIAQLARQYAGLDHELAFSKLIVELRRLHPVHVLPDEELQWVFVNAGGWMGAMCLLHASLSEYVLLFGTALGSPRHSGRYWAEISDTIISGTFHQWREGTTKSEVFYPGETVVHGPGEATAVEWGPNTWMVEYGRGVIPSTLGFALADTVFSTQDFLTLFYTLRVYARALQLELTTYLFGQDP

[38] = Clearance in Sprague-Dawley rat at 0.5 mg/kg, iv by LC-MS/MS analysis; assay type: ADME, organism-based; details: in vivo
Rattus norvegicus [39] = test: Protection against tacrine-induced po dosed Sprague-Dawley rat tremulous jaw model assessed as decrease in tremor duration pretreated with compound for 90 mins followed by tacrine addition and measured after 5 mins; assay type: functional, organism-based; details: dose 3-25 mg/kg, time 95.0 min
[40] = molecular target: T2, Sodium-dependent noradrenaline transporter (Homo sapiens, UniProt P23975); test: Binding affinity to human NET
T2 sequence (P23975 whole entry): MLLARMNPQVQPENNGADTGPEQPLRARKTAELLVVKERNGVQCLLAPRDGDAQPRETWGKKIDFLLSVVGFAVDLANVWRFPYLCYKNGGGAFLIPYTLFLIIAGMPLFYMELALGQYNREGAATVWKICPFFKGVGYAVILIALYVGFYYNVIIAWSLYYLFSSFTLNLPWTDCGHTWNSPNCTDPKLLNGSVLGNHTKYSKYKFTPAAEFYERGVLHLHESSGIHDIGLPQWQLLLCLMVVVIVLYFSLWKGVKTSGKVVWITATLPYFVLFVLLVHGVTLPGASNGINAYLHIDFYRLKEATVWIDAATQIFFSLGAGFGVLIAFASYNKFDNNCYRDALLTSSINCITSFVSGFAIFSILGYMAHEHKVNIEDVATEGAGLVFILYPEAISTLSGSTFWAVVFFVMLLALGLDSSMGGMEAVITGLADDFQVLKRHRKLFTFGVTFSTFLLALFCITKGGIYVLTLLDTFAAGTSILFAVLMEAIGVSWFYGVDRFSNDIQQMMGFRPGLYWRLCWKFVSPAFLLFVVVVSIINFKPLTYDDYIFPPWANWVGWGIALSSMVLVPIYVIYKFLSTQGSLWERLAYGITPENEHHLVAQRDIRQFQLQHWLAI

Mus musculus [41] = organism: Mus musculus; test: Anti-parkinson activity in C57BL6/J mouse model assessed as reduction in 10p 50 Hz induced DA release in striatum by fast-scan cyclic voltammetry analysis; assay type: functional, organism-based
[42] = Protein binding in mouse brain assessed as unbound fraction by rapid equilibrium dialysis; assay type: ADME, tissue-based
[43] = molecular target: T2, Sodium-dependent noradrenaline transporter; test: Binding affinity to human NET relative to control
Rattus norvegicus [44] = organism: Rattus norvegicus; test: Anti-parkinson activity in Sprague-Dawley rat model assessed as decrease in spontaneous firing frequency measured after 15 mins by whole cell patch assay; assay type: functional, organism-based
[45] = Metabolic stability in rat hepatocytes assessed as intrinsic clearance measured per 10^6 cells; assay type: ADME, cell-based, Hepatocyte
[46] = molecular target: T3, D(4) dopamine receptor (Homo sapiens) (UniProt P21917); test: Antagonist activity at human D4 receptor relative to control; assay type: functional; set-up: scale not given: the % may be the effect or the level left; details: filed as antagonist
T3 sequence (whole entry): T1 sequence (P21917 whole entry)

[47] = Metabolic stability in mouse hepatocytes assessed as intrinsic clearance measured per 10^6 cells; assay type: ADME, cell-based, Hepatocyte

With `CN(C)C1(CNC(=O)c2cc(-c3ccc(C(F)(F)F)cc3)n(C)n2)CCCC1` the Vd [1] was 18.7 L/kg, the IC50 [2] was 1.41 µM and the IC50 [3] was 0.281 µM. The CL [4] was 81.8 mL/min/kg, the IC50 [5] was 0.183 µM and the concentration at 2 h [6] was 30 nM. It also gave a bioavailability [7] of 27.8%.
`CN1CCC[C@H](NC(=O)c2cc(-c3ccc(C(F)(F)F)cc3)n(C)n2)C1` showed a Vd [1] of 13 L/kg, an IC50 [2] of 0.422 µM and a microsomal CLint [8] of 9.6 µL/min/mg. It also gave an IC50 [3] of 3.73 µM, a CL [4] of 40.5 mL/min/kg and an IC50 [5] of 0.093 µM. For the same compound, the microsomal CLint [9] was 2.5 µL/min/mg, the concentration at 2 h [6] was 1090 nM and the bioavailability [7] was 17.3%.
For `COc1ccc(-c2cc(C(=O)N[C@H]3CCCN(C)C3)nn2C)c(Cl)c1`, the fraction unbound [10] was 0.25, the Kp uu at 6 h [11] was 1.4 and the Vd [1] was 12.3 L/kg. For the same compound, the AUC(0-inf) [12] was 775 ng·h/mL, the Cmax [13] was 350 nM and the microsomal CLint [14] was 27.7 µL/min/mg. The AUC(0-inf) [15] was 205 ng·h/mL, the Vd [16] was 11.4 L/kg and the IC50 [2] was 2.56 µM. It also gave a half-life [17] of 5.9 h, an Activity (Rattus norvegicus [18]) of 84% and an IC50 [3] of 0.657 µM. For the same compound, the Activity (Mus musculus [19]) was “Active”, the Activity (Mus musculus [20]) was “Active” and the Drug uptake (Brain) was “Dose-Dependent Effect”. For the same compound, the bioavailability [21] was 11%, the AUC [22] was 13.5 ng·h/mL and the CLint [23] was 3.7 µL/min/1e6 cells. The fraction unbound [24] was 0.202, the half-life [25] was 7.8 h and the IC50 [5] was 0.086 µM. The IC50 (D(4) dopamine receptor) was 1.29 µM, the Activity [26] was 13% and the fraction unbound [27] was 0.3. For the same compound, the Activity (Mus musculus [28]) was “Active”, the fraction unbound [29] was 0.068 and the microsomal CLint [30] was 2.8 µL/min/mg. The microsomal CLint [31] was 31.2 µL/min/mg, the Activity (Rattus norvegicus [32]) was “Active” and the CLint [33] was 32.3 µL/min/1e6 cells. The microsomal CLint [34] was 33.3 µL/min/mg, the Activity (Rattus norvegicus [35]) was 18.9% and the bioavailability [36] was 43.8%. The Activity [37] was 51%, the concentration at 2 h [6] was 1820 nM and the clearance [38] was 38.2 mL/min/kg. The Activity (Rattus norvegicus [39]) was “Dose-Dependent Effect”, the IC50 [40] was 44.7 µM and the Activity (Mus musculus [41]) was “Active”. The fraction unbound [42] was 0.053, the Activity [43] was 62% and the Activity (Rattus norvegicus [44]) was “Active”. It also gave a CLint [45] of 20.8 µL/min/1e6 cells, an Activity [46] of 90% and a CLint [47] of 25.1 µL/min/1e6 cells.
Work on `Cn1nc(C(=O)NCCN2CCCCC2)cc1-c1ccc(C(F)(F)F)cc1` yielded a Vd [1] of 29.8 L/kg, an IC50 [2] of 0.45 µM and a microsomal CLint [8] of 3.1 µL/min/mg. The IC50 [3] was 3.18 µM, the CL [4] was 64.9 mL/min/kg and the IC50 [5] was 0.06 µM. It also gave a microsomal CLint [9] of 3.1 µL/min/mg, a concentration at 2 h [6] of 524 nM and a bioavailability [7] of 82%.
`CN1CCC(NC(=O)c2cc(-c3ccc(C(F)(F)F)cc3)nn2C)CC1` showed an IC50 [5] of 3.84 µM.
